Test results reported in ChEMBL document CHEMBL3112450, “Synthesis and in vitro antitumor evaluation of primary amine substituted quinazoline linked benzimidazole” (Bioorg Med Chem Lett, 2014).

What was measured:
Format in all cases: functional
[1] = Cytotoxicity against human Hs578T cells assessed as cell growth at 10^-7 M after 48 hrs by SRB assay; details: Hs-578T, read-out: Activity
NCI-H23 = assay: Cytotoxicity against human NCI-H23 cells after 48 hrs by SRB assay; details: NCI-H23, 48 h
CAKI-1 = assay: Cytotoxicity against human Caki1 cells after 48 hrs by SRB assay; details: CAKI-1, 48 h
HT-29 [2] = assay: Cytotoxicity against human HT-29 cells assessed as cell growth at 10^-4 M after 48 hrs by SRB assay; details: HT-29, 48 h, read-out: Activity
NCI-H226 [3] = assay: Cytotoxicity against human NCI-H226 cells assessed as cell growth at 10^-4 M after 48 hrs by SRB assay; details: NCI-H226, 48 h, read-out: Activity
RPMI-8226 [4] = assay: Cytotoxicity against human RPMI8226 cells assessed as cell growth at 10^-4 M after 48 hrs by SRB assay; details: RPMI-8226, 48 h, read-out: Activity
SW-620 [5] = assay: Cytotoxicity against human SW620 cells assessed as cell growth at 10^-8 M after 48 hrs by SRB assay; details: SW-620, 48 h, read-out: Activity
OVCAR-8 [6] = assay: Cytotoxicity against human OVCAR8 cells assessed as cell growth at 10^-4 M after 48 hrs by SRB assay; details: OVCAR-8, 48 h, read-out: Activity
HCC 2998 = assay: Cytotoxicity against human HCC2998 cells assessed as cell growth at 10^-8 M after 48 hrs by SRB assay; details: HCC 2998, 48 h, read-out: Activity
Malme-3M [7] = assay: Cytotoxicity against human MALME-3M cells after 48 hrs by SRB assay
HT-29 [8] = assay: Cytotoxicity against human HT-29 cells assessed as cell growth at 10^-8 M after 48 hrs by SRB assay; details: HT-29, 48 h, read-out: Activity
HCT-15 = assay: Cytotoxicity against human HCT15 cells assessed as cell growth at 10^-7 M after 48 hrs by SRB assay; details: HCT-15, 48 h, read-out: Activity
NCI-H226 [9] = assay: Cytotoxicity against human NCI-H226 cells assessed as cell growth at 10^-7 M after 48 hrs by SRB assay; details: NCI-H226, 48 h, read-out: Activity
IGROV-1 = assay: Cytotoxicity against human IGROV1 cells assessed as cell growth at 10^-8 M after 48 hrs by SRB assay; details: IGROV-1, 48 h, read-out: Activity
MDA-MB-231 = assay: Cytotoxicity against human MDA-MB-231 cells after 48 hrs by SRB assay; details: MDA-MB-231, 48 h
MOLT-4 = assay: Cytotoxicity against human MOLT4 cells assessed as cell growth at 10^-8 M after 48 hrs by SRB assay; details: MOLT-4, 48 h, read-out: Activity
SK-MEL-5 = assay: Cytotoxicity against human SK-MEL-5 cells after 48 hrs by SRB assay; details: SK-MEL-5, 48 h
[10] = Cytotoxicity against human OVCAR5 cells assessed as cell growth at 10^-4 M after 48 hrs by SRB assay; details: OVCAR-5, 48 h, read-out: Activity
[11] = Cytotoxicity against human OVCAR5 cells after 48 hrs by SRB assay; details: OVCAR-5, 48 h
OVCAR-8 [12] = assay: Cytotoxicity against human OVCAR8 cells assessed as cell growth at 10^-8 M after 48 hrs by SRB assay; details: OVCAR-8, 48 h, read-out: Activity
RPMI-8226 [13] = assay: Cytotoxicity against human RPMI8226 cells assessed as cell growth at 10^-8 M after 48 hrs by SRB assay; details: RPMI-8226, 48 h, read-out: Activity
HOP-92 = assay: Cytotoxicity against human HOP92 cells assessed as cell growth at 10^-6 M after 48 hrs by SRB assay; details: HOP-92, 48 h, read-out: Activity
K562 = assay: Cytotoxicity against human K562 cells after 48 hrs by SRB assay; details: K562, 48 h
[14] = Cytotoxicity against human OVCAR4 cells after 48 hrs by SRB assay; details: OVCAR-4, 48 h
SK-MEL-2 = assay: Cytotoxicity against human SK-MEL-2 cells after 48 hrs by SRB assay; details: SK-MEL-2, 48 h
SR [15] = assay: Cytotoxicity against human SR cells after 48 hrs by SRB assay
TK-10 [16] = assay: Cytotoxicity against human TK10 cells assessed as cell growth at 10^-8 M after 48 hrs by SRB assay; details: TK-10, 48 h, read-out: Activity
Malme-3M [17] = assay: Cytotoxicity against human MALME-3M cells assessed as cell growth at 10^-8 M after 48 hrs by SRB assay; details: read-out: Activity
UACC-62 = assay: Cytotoxicity against human UACC62 cells assessed as cell growth at 10^-6 M after 48 hrs by SRB assay; details: UACC-62, 48 h, read-out: Activity
TK-10 [18] = assay: Cytotoxicity against human TK10 cells assessed as cell growth at 10^-4 M after 48 hrs by SRB assay; details: TK-10, 48 h, read-out: Activity
786-0 = assay: Cytotoxicity against human 786-0 cells assessed as cell growth at 10^-7 M after 48 hrs by SRB assay; details: 786-0, 48 h, read-out: Activity
DU-145 = assay: Cytotoxicity against human DU145 cells assessed as cell growth at 10^-8 M after 48 hrs by SRB assay; details: DU-145, 48 h, read-out: Activity
SR [19] = assay: Cytotoxicity against human SR cells assessed as cell growth at 10^-6 M after 48 hrs by SRB assay; details: read-out: Activity
[20] = Cytotoxicity against human UO31 cells assessed as cell growth at 10^-6 M after 48 hrs by SRB assay; details: UO-31, 48 h, read-out: Activity
HOP-62 = assay: Cytotoxicity against human HOP62 cells after 48 hrs by SRB assay; details: HOP-62, 48 h
MDA-MB-468 [21] = assay: Cytotoxicity against human MDA-MB-468 cells after 48 hrs by SRB assay; details: MDA-MB-468, 48 h
SW-620 [22] = assay: Cytotoxicity against human SW620 cells assessed as cell growth at 10^-4 M after 48 hrs by SRB assay; details: SW-620, 48 h, read-out: Activity
Malme-3M [23] = assay: Cytotoxicity against human MALME-3M cells assessed as cell growth at 10^-6 M after 48 hrs by SRB assay; details: read-out: Activity
MDA-MB-468 [24] = assay: Cytotoxicity against human MDA-MB-468 cells assessed as cell growth at 10^-6 M after 48 hrs by SRB assay; details: MDA-MB-468, 48 h, read-out: Activity

SMILES: C=CCn1c(C)nc2ccc(Nc3nc(Nc4ccc5nc(C)n(CC=C)c5c4)c4ccccc4n3)cc21
- growth at 0.1 µM [1]: 96%
- GI50 (NCI-H23): 1.72 µM
- TGI (NCI-H23): 3.23 µM
- GI50 (CAKI-1): 1.72 µM
- TGI (CAKI-1): 3.36 µM
- growth at 100 µM (HT-29 [2]): -16%
- growth at 100 µM (NCI-H226 [3]): -38%
- growth at 100 µM (RPMI-8226 [4]): 5%
- growth at 0.01 µM (SW-620 [5]): 98%
- growth at 100 µM (OVCAR-8 [6]): -18%
- growth at 0.01 µM (HCC 2998): 92%
- GI50 (Malme-3M [7]): 1.9 µM
- TGI (Malme-3M [7]): 3.68 µM
- growth at 0.01 µM (HT-29 [8]): 102%
- growth at 0.1 µM (HCT-15): 91%
- growth at 0.1 µM (NCI-H226 [9]): 86%
- growth at 0.01 µM (IGROV-1): 100%
- GI50 (MDA-MB-231): 1.34 µM
- LC50 (MDA-MB-231): 5.12 µM
- TGI (MDA-MB-231): 2.62 µM
- growth at 0.01 µM (MOLT-4): 101%
- GI50 (SK-MEL-5): 1.65 µM
- TGI (SK-MEL-5): 3.03 µM
- growth at 100 µM [10]: -75%
- GI50 [11]: 1.7 µM
- LC50 [11]: 5.62 µM
- TGI [11]: 3.09 µM
- growth at 0.01 µM (OVCAR-8 [12]): 97%
- growth at 0.01 µM (RPMI-8226 [13]): 99%
- growth at 1 µM (HOP-92): 70%
- GI50 (K562): 1.42 µM
- LC50 (concentration killing 50% of cells) (K562): > 100 µM
- GI50 [14]: 1.53 µM
- TGI [14]: 2.87 µM
- GI50 (SK-MEL-2): 1.96 µM
- TGI (SK-MEL-2): 3.54 µM
- GI50 (SR [15]): 1.52 µM
- LC50 (SR [15]): > 100 µM
- TGI (SR [15]): 3.98 µM
- growth at 0.01 µM (TK-10 [16]): 100%
- growth at 0.01 µM (Malme-3M [17]): 91%
- growth at 1 µM (UACC-62): 86%
- growth at 100 µM (TK-10 [18]): -49%
- growth at 0.1 µM (786-0): 98%
- growth at 0.01 µM (DU-145): 102%
- growth at 1 µM (SR [19]): 72%
- growth at 1 µM [20]: 71%
- GI50 (HOP-62): 1.63 µM
- TGI (HOP-62): 2.98 µM
- GI50 (MDA-MB-468 [21]): 1.22 µM
- TGI (MDA-MB-468 [21]): 2.48 µM
- growth at 100 µM (SW-620 [22]): -17%
- growth at 1 µM (Malme-3M [23]): 98%
- growth at 1 µM (MDA-MB-468 [24]): 64%
